Results from US20250122160A1, “PROTEIN TYROSINE PHOSPHATASE INHIBITORS AND METHODS OF USE THEREOF” (Calico Life Sciences LLC, priority 0001, published 2025).

How the values were obtained:
[1] = target: T1, His tagged full-length PTPN1 protein (Homo sapiens, UniProt P18031); test: Mobility shift assay (MSA) to determine potency of PTPN1 inhibitors; type: biochemical; conditions: 0.5 nM enzyme, 2 μM substrate
T1 construct: made in house
T1 sequence (P18031 with tags, fused parts or gaps): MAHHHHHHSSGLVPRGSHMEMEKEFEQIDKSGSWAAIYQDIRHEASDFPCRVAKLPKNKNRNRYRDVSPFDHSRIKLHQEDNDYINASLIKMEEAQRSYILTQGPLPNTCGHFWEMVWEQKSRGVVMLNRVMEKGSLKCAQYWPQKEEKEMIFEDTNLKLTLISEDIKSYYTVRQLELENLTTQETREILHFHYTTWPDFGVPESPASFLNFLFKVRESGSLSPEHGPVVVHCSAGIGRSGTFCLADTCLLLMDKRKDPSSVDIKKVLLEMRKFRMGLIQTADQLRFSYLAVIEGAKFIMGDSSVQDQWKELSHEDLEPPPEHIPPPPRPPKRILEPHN
Outline: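 Readout is microfluidic mobility shift (ex 488/em 530 nm) of a 2 μM OG488-labelled pTyr insulin-receptor peptide after a 10 min room-temperature reaction, following 10 min enzyme–compound preincubation. Enzyme: 0.5 nM full-length His-tagged PTPN1 in HEPES pH 7.5 buffer. IC50 fitted from % inhibition at 12 concentrations (1:3 steps).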

[2] = target: T2, His tagged PTPN2 (TC45) protein (Homo sapiens, UniProt P17706); test: Mobility shift assay (MSA) to determine potency of PTPN2 inhibitors; type: biochemical; conditions: 0.5 nM enzyme, 2 μM substrate
T2 construct: made in house
T2 sequence (P17706 with tags, fused parts or gaps isoform P17706-2): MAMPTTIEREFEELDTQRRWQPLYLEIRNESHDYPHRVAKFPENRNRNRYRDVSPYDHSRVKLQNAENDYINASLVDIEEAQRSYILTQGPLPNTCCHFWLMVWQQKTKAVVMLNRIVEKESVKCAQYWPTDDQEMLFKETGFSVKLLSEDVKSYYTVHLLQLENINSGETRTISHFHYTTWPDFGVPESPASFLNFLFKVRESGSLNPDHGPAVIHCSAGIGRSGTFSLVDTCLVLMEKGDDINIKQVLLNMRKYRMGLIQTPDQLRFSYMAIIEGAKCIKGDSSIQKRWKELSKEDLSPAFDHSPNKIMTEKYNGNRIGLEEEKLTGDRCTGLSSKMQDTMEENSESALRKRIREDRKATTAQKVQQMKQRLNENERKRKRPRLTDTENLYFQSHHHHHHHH
Outline: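 His-tagged human PTPN2 (TC45), 0.5 nM, preincubated 10 min at room temperature with compound (12-point, 1:3 dilutions) in HEPES pH 7.5 buffer with EGTA, EDTA, Tween 20 and DTT. Then 2 μM OG488-labelled phospho-insulin-receptor peptide was added for 10 min and quenched. % conversion was read by mobility shift, and IC50 came from % inhibition.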

## O=C1CN(c2c(O)cc3c(c2F)C[C@H](NCCCOCC(F)F)CO3)S(=O)(=O)N1 [Compound 379, 5-[(3S)-3-{[3-(2,2-difluoroethoxy)propyl]amino}-5-fluoro-7-hydroxy-3,4-dihydro-2H-1-benzopyran-6-yl]-1λ^6,2,5-thiadiazolidine-1,1,3-trione]
[1]
  IC50: 10 to 100 nM
[2]
  IC50: 10 to 100 nM

## Cc1nn(C)c(C)c1CN1CC2(CC(N3CCc4cc(O)c(N5CC(=O)NS5(=O)=O)c(F)c4C3)C2)C1 [Compound 237]
[1]
  IC50: > 100 nM
[2]
  IC50: > 100 nM

## O=C1CN(c2c(O)cc3c(c2F)CN(CCCCCC(F)(F)F)CC3)S(=O)(=O)N1 [Compound 161]
[1]
  IC50: 10 to 100 nM
[2]
  IC50: 1 to 10 nM

## COCCNC(=O)N1CCc2cc(O)c(N3CC(=O)NS3(=O)=O)c(F)c2C1 [Compound 282]
[1]
  IC50: 10 to 100 nM
[2]
  IC50: 10 to 100 nM

## O=C1CN(c2c(O)cc3c(c2F)CN(C2CNC2)CC3)S(=O)(=O)N1 [Compound 163]
[1]
  IC50: > 100 nM
[2]
  IC50: 10 to 100 nM

## Cc1nn(C)c(C)c1CCN1CCc2cc(O)c(N3CC(=O)NS3(=O)=O)c(F)c2C1 [Compound 209]
[1]
  IC50: 1 to 10 nM
[2]
  IC50: 1 to 10 nM

## NCC1(O)CCc2cc(O)c(N3CC(=O)NS3(=O)=O)c(F)c2C1 (stereo not shown) [Compound 337, 5-[7-(aminomethyl)-1-fluoro-3,7-dihydroxy-5,6,7,8-tetrahydronaphthalen-2-yl]-1λ^6,2,5-thiadiazolidine-1,1,3-trione]
[1]
  IC50: 10 to 100 nM
[2]
  IC50: 10 to 100 nM

## NCCC1(CCN[C@@H]2CCc3cc(O)c(N4CC(=O)NS4(=O)=O)c(F)c3C2)CCC1 [Compound 377, 5-[(7R)-7-({2-[1-(2-aminoethyl)cyclobutyl]ethyl}amino)-1-fluoro-3-hydroxy-5,6,7,8-tetrahydronaphthalen-2-yl]-1λ^6,2,5-thiadiazolidine-1,1,3-trione]
[1]
  IC50: 1 to 10 nM
[2]
  IC50: < 1 nM

## CC(C)CCNCC1CCc2cc(O)c(N3CC(=O)NS3(=O)=O)c(F)c2C1 (stereo not shown) [Compound 390, 5-(1-fluoro-3-hydroxy-7-{[(3-methylbutyl)amino]methyl}-5,6,7,8-tetrahydronaphthalen-2-yl)-1λ^6,2,5-thiadiazolidine-1,1,3-trione]
[1]
  IC50: 10 to 100 nM
[2]
  IC50: 10 to 100 nM

## O=C1CN(c2c(O)cc3c(c2F)CC(CNCCCC2CC2)CC3)S(=O)(=O)N1 (stereo not shown) [Compound 394, 5-(7-{[(3-cyclopropylpropyl)amino]methyl}-1-fluoro-3-hydroxy-5,6,7,8-tetrahydronaphthalen-2-yl)-1λ^6,2,5-thiadiazolidine-1,1,3-trione]
[1]
  IC50: 10 to 100 nM
[2]
  IC50: 10 to 100 nM

## [2H]C1([2H])Cc2cc(O)c(N3CC(=O)NS3(=O)=O)c(F)c2C([2H])([2H])C1([2H])NCCC(C)C (stereo not shown) [Compound 340, 5-{1-fluoro-3-hydroxy-7-[(3-methylbutyl)amino](6,6,7,8,8-^2H5)-5,6,7,8-tetrahydronaphthalen-2-yl}-1λ^6,2,5-thiadiazolidine-1,1,3-trione]
[1]
  IC50: 1 to 10 nM
[2]
  IC50: < 1 nM

## O=C1CN(c2c(O)cc3c(c2F)CN(CCCC2CCNCC2)CC3)S(=O)(=O)N1 [Compound 219]
[1]
  IC50: 10 to 100 nM
[2]
  IC50: 10 to 100 nM

## O=C1CN(c2c(O)cc3c(c2F)C[C@H](NCCCC(F)F)CO3)S(=O)(=O)N1 [Compound 373, 5-{(3S)-3-[(4,4-difluorobutyl)amino]-5-fluoro-7-hydroxy-3,4-dihydro-2H-1-benzopyran-6-yl}-1λ^6,2,5-thiadiazolidine-1,1,3-trione]
[1]
  IC50: 10 to 100 nM
[2]
  IC50: 1 to 10 nM

## [2H]C([2H])([2H])C([2H])([2H])C([2H])([2H])C([2H])([2H])NC1CCc2cc(O)c(N3CC(=O)NS3(=O)=O)c(F)c2C1 (stereo not shown) [Compound 336, 5-{7-[(^2H9)butylamino]-1-fluoro-3-hydroxy-5,6,7,8-tetrahydronaphthalen-2-yl}-1λ^6,2,5-thiadiazolidine-1,1,3-trione]
[1]
  IC50: 1 to 10 nM
[2]
  IC50: 1 to 10 nM

## Cc1nn(C)c(C)c1CN1CCC(N2CCc3cc(O)c(N4CC(=O)NS4(=O)=O)c(F)c3C2)CC1 [Compound 236]
[1]
  IC50: 10 to 100 nM
[2]
  IC50: > 100 nM

## O=C1CN(c2c(O)cc3c(c2F)CC(CNCC2CC2)CC3)S(=O)(=O)N1 (stereo not shown) [Compound 399, 5-(7-{[(cyclopropylmethyl)amino]methyl}-1-fluoro-3-hydroxy-5,6,7,8-tetrahydronaphthalen-2-yl)-1λ^6,2,5-thiadiazolidine-1,1,3-trione]
[1]
  IC50: 10 to 100 nM
[2]
  IC50: 10 to 100 nM

## O=C1CN(c2c(O)cc3c(c2F)CN(CCCC2CCCCC2)CC3)S(=O)(=O)N1 [Compound 286]
[1]
  IC50: 1 to 10 nM
[2]
  IC50: 1 to 10 nM

## NCCCN1CCc2cc(O)c(N3CC(=O)NS3(=O)=O)c(F)c2C1 [Compound 218]
[1]
  IC50: 10 to 100 nM
[2]
  IC50: > 100 nM

## O=C1CN(c2c(O)cc3c(c2F)CN(CCCc2ccc(F)cc2)CC3)S(=O)(=O)N1 [Compound 299]
[1]
  IC50: 10 to 100 nM
[2]
  IC50: 1 to 10 nM

## CC(C)CCC(=O)N1CCc2cc(O)c(N3CC(=O)NS3(=O)=O)c(F)c2C1 [Compound 144]
[1]
  IC50: 10 to 100 nM
[2]
  IC50: 1 to 10 nM

## CC(C)(C)c1ccc(CCCN2CCc3cc(O)c(N4CC(=O)NS4(=O)=O)c(F)c3C2)cc1 [Compound 301]
[1]
  IC50: > 100 nM
[2]
  IC50: 10 to 100 nM

## COC(CN1CCc2cc(O)c(N3CC(=O)NS3(=O)=O)c(F)c2C1)C1CCCC1 (stereo not shown) [Compound 249]
[1]
  IC50: 10 to 100 nM
[2]
  IC50: 10 to 100 nM

## O=C1CN(c2c(O)cc3c(c2F)CN(CC2CC4(CC4)C2)CC3)S(=O)(=O)N1 [Compound 168]
[1]
  IC50: 10 to 100 nM
[2]
  IC50: 10 to 100 nM

## CC1(CCNC(=O)N2CCc3cc(O)c(N4CC(=O)NS4(=O)=O)c(F)c3C2)CC1 [Compound 281]
[1]
  IC50: 10 to 100 nM
[2]
  IC50: 10 to 100 nM

## O=C1CN(c2c(O)cc3c(c2F)CC(CNCC2CCC2)CC3)S(=O)(=O)N1 (stereo not shown) [Compound 400, 5-(7-{[(cyclobutylmethyl)amino]methyl}-1-fluoro-3-hydroxy-5,6,7,8-tetrahydronaphthalen-2-yl)-1λ^6,2,5-thiadiazolidine-1,1,3-trione]
[1]
  IC50: 10 to 100 nM
[2]
  IC50: 10 to 100 nM

## CC(C)NCCN1CCc2cc(O)c(N3CC(=O)NS3(=O)=O)c(F)c2C1 [Compound 164]
[1]
  IC50: > 100 nM
[2]
  IC50: 10 to 100 nM

## O=C1CN(c2c(O)cc3c(c2F)CN(CCCc2ccccc2F)CC3)S(=O)(=O)N1 [Compound 303]
[1]
  IC50: 10 to 100 nM
[2]
  IC50: 1 to 10 nM

## Cn1nccc1CNC(=O)N1CCc2cc(O)c(N3CC(=O)NS3(=O)=O)c(F)c2C1 [Compound 272]
[1]
  IC50: 10 to 100 nM
[2]
  IC50: 10 to 100 nM

## O=C1CN(c2c(O)cc3c(c2F)C[C@H](NCc2cccnn2)CC3)S(=O)(=O)N1 [Compound 349, 5-[(7R)-1-fluoro-3-hydroxy-7-{[(pyridazin-3-yl)methyl]amino}-5,6,7,8-tetrahydronaphthalen-2-yl]-1λ^6,2,5-thiadiazolidine-1,1,3-trione]
[1]
  IC50: 10 to 100 nM
[2]
  IC50: 10 to 100 nM

## CCn1nc(C)c(CCN2CCc3cc(O)c(N4CC(=O)NS4(=O)=O)c(F)c3C2)c1C [Compound 276]
[1]
  IC50: 1 to 10 nM
[2]
  IC50: < 1 nM

## O=C1CN(c2c(O)cc3c(c2F)C[C@H](NCC2(C(F)F)CC2)CC3)S(=O)(=O)N1 [Compound 355, 5-[(7R)-7-({[1-(difluoromethyl)cyclopropyl]methyl}amino)-1-fluoro-3-hydroxy-5,6,7,8-tetrahydronaphthalen-2-yl]-1λ^6,2,5-thiadiazolidine-1,1,3-trione]
[1]
  IC50: 10 to 100 nM
[2]
  IC50: 1 to 10 nM

## Cc1nn(CC(F)F)c(C)c1CCN1CCc2cc(O)c(N3CC(=O)NS3(=O)=O)c(F)c2C1 [Compound 253]
[1]
  IC50: 1 to 10 nM
[2]
  IC50: 1 to 10 nM
